Each molecule was assayed on J774.1 (assay: Inhibition of LPS-induced NO production in mouse J774.1cells after 24 hrs). Settings: J774.1, 24 h.
Format: functional, cell-based

Row | IC50 [µM] | SMILES
1 | 119 | C=C[C@@]1(C)C[C@@H](O)[C@@H]2[C@@]3(C)C=C(OC(C)=O)C(=O)C(C)(C)[C@@H]3C[C@@H](OC(C)=O)[C@@]2(O)[C@H]1OC(C)=O
2 | 81.8 | C=C[C@@]1(C)CC(=O)[C@H]2[C@](O)(C1=O)[C@H](OC(C)=O)C[C@H]1C(C)(C)[C@H](O)[C@H](OC(=O)c3ccccc3)[C@H](O)[C@@]12C [ORTHOSIPHONONE C]
3 | 35 | C=C[C@@]1(C)CC(=O)[C@H]2[C@](O)(C1=O)[C@H](OC(C)=O)C[C@H]1C(C)(C)[C@H](OC(=O)c3ccccc3)[C@H](O)[C@H](OC(=O)c3ccccc3)[C@@]12C [ORTHOSIPHONONE D]
4 | 61.1 | C=C[C@H]1[C@@H](OC(=O)c2ccccc2)[C@H]2[C@](O)(C(=O)[C@@]1(C)O)[C@H](OC(C)=O)C[C@H]1C(C)(C)[C@H](OC(=O)c3ccccc3)[C@H](O)[C@H](OC(C)=O)[C@@]12C [STAMINOL C]
5 | 92 | C=C[C@H]1[C@@H](OC(=O)c2ccccc2)[C@@H]2[C@@]3(C)C=C(OC(C)=O)C(=O)C(C)(C)[C@@H]3C[C@@H](OC(C)=O)[C@@]2(O)C(=O)[C@@]1(C)O [STAMINOL D]
6 | 35.7 | CNC(=N)NCCC[C@H](N)C(=O)O [TILARGININE]

Source: ChEMBL document CHEMBL1151178, “Staminane- and isopimarane-type diterpenes from Orthosiphon stamineus of Taiwan and their nitric oxide inhibitory activity” (J Nat Prod, 2004)
